From the supplement of paper PMC5908809

What was measured:
IMC-1 (IL-2 20 ng/mL) [1] = assay: drug sensitivity score (DSS) (DSS units); higher = more sensitive; extreme values may be limits of the assay; settings: 72 h
SNK-6 (IL-2 2.5 ng/mL) [2] = assay: as above; settings: 72 h
KHYG-1 (IL-2 2.5 ng/mL) [3] = assay: as above; settings: 72 h
[4] = system: normal primary NK cells, pool 1 (3 donors) (IL-2 2.5 ng/mL); assay: as above; settings: 72 h
[5] = system: normal primary NK cells, pool 2 (3 donors) (IL-2 2.5 ng/mL); assay: as above; settings: 72 h
NKL (IL-2 2.5 ng/mL) [6] = assay: as above; settings: 72 h
KAI3 (IL-2 2.5 ng/mL) [7] = assay: as above; settings: 72 h
NK-YS (IL-2 2.5 ng/mL) [8] = assay: as above; settings: 72 h
DERL-7 (IL-2 2.5 ng/mL) [9] = assay: as above; settings: 72 h
[10] = system: normal primary NK cells, pool 3 (3 donors) (IL-2 2.5 ng/mL); assay: as above; settings: 72 h
YT (IL-2 2.5 ng/mL) [11] = assay: as above; settings: 72 h
NK-92 (IL-2 2.5 ng/mL) [12] = assay: as above; settings: 72 h
[13] = system: normal primary NK cells, pool 1 (3 donors), resting (IL-2 0 ng/mL); assay: as above; settings: 72 h
[14] = system: normal NK cells expanded with K562-aAPC; assay: percent inhibition of viability; higher = more inhibition; settings: 72 h, IL-2 2.5 ng/mL
Procedure: (§1)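 Drug sensitivity and resistance testing on K562-aAPC-expanded normal NK cells: 5 concentrations (10-fold steps over a 10,000-fold range), 72 h at 37 °C, viability by CellTiter-Glo normalised to DMSO and benzethonium chloride controls; DSS from the fitted curve.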

[15] = system: normal NK cells expanded with K562-aAPC; assay: drug sensitivity score (DSS) (DSS units); higher = more sensitive; extreme values may be limits of the assay; settings: 72 h; IL-2 2.5 ng/mL
Procedure: as §1

IMC-1 (IL-2 20 ng/mL) [16] = assay: percent inhibition of viability; higher = more inhibition; settings: 72 h
SNK-6 (IL-2 2.5 ng/mL) [17] = assay: as above; settings: 72 h
KHYG-1 (IL-2 2.5 ng/mL) [18] = assay: as above; settings: 72 h
[19] = system: normal primary NK cells, pool 1 (3 donors) (IL-2 2.5 ng/mL); assay: as above; settings: 72 h
[20] = system: normal primary NK cells, pool 2 (3 donors) (IL-2 2.5 ng/mL); assay: as above; settings: 72 h
NKL (IL-2 2.5 ng/mL) [21] = assay: as above; settings: 72 h
KAI3 (IL-2 2.5 ng/mL) [22] = assay: as above; settings: 72 h
NK-YS (IL-2 2.5 ng/mL) [23] = assay: as above; settings: 72 h
DERL-7 (IL-2 2.5 ng/mL) [24] = assay: as above; settings: 72 h
[25] = system: normal primary NK cells, pool 3 (3 donors) (IL-2 2.5 ng/mL); assay: as above; settings: 72 h
YT (IL-2 2.5 ng/mL) [26] = assay: as above; settings: 72 h
NK-92 (IL-2 2.5 ng/mL) [27] = assay: as above; settings: 72 h
[28] = system: normal primary NK cells, pool 1 (3 donors), resting (IL-2 0 ng/mL); assay: as above; settings: 72 h

CO[C@@]12[C@H](COC(N)=O)C3=C(C(=O)C(C)=C(N)C3=O)N1C[C@@H]1N[C@@H]12 [Mitomycin C] (max concentration tested 10000 nM)
Settings	drug sensitivity score
DERL-7 (IL-2 2.5 ng/mL) [9]	0
IMC-1 (IL-2 20 ng/mL) [1]	6.29
KAI3 (IL-2 2.5 ng/mL) [7]	9.91
KHYG-1 (IL-2 2.5 ng/mL) [3]	16.3
NK-92 (IL-2 2.5 ng/mL) [12]	9.13
NK-YS (IL-2 2.5 ng/mL) [8]	17.2
NKL (IL-2 2.5 ng/mL) [6]	21.9
SNK-6 (IL-2 2.5 ng/mL) [2]	14.8
YT (IL-2 2.5 ng/mL) [11]	4.01
[4]	2.74
[5]	10.3
[10]	9.16
[13]	6.45
[15]	1.99

percent inhibition of viability [%]
Settings	1 nM	10 nM	100 nM	1000 nM	10000 nM
DERL-7 (IL-2 2.5 ng/mL) [24]	-3.54	4.32	-0.35	-4.88	11.3
IMC-1 (IL-2 20 ng/mL) [16]	-2.35	2.42	2.75	5.66	98.4
KAI3 (IL-2 2.5 ng/mL) [22]	-6	1.39	6.47	42.2	90.1
KHYG-1 (IL-2 2.5 ng/mL) [18]	-11.3	-10.2	-3.76	90.6	106
NK-92 (IL-2 2.5 ng/mL) [27]	-6.49	-1.15	-5.66	25.2	96
NK-YS (IL-2 2.5 ng/mL) [23]	-3.94	-3.78	7.6	89.1	101
NKL (IL-2 2.5 ng/mL) [21]	-16.1	-7.78	25.9	99.1	99.9
SNK-6 (IL-2 2.5 ng/mL) [17]	8	-22.7	-15.3	85.5	90
YT (IL-2 2.5 ng/mL) [26]	-7.65	-5.91	-4.19	-0.39	73.2
[14]	-6.75	-6.89	-6.31	1.66	36.7
[19]	-7.25	13.3	6.96	7.9	35
[20]	-2.16	4.57	8.07	44.3	91.9
[25]	-2.62	8.35	8.1	31.6	94.6
[28]	3.33	21.6	12.1	19.2	72.1

CC[C@@]1(O)C(=O)OCc2c1cc1n(c2=O)Cc2cc3c(CN(C)C)c(O)ccc3nc2-1 [Topotecan] (max concentration tested 10000 nM)
Settings	drug sensitivity score
DERL-7 (IL-2 2.5 ng/mL) [9]	26.9
IMC-1 (IL-2 20 ng/mL) [1]	30.6
KAI3 (IL-2 2.5 ng/mL) [7]	28.5
KHYG-1 (IL-2 2.5 ng/mL) [3]	30.1
NK-92 (IL-2 2.5 ng/mL) [12]	32.8
NK-YS (IL-2 2.5 ng/mL) [8]	29.2
NKL (IL-2 2.5 ng/mL) [6]	29.9
SNK-6 (IL-2 2.5 ng/mL) [2]	29
YT (IL-2 2.5 ng/mL) [11]	27.7
[4]	10.3
[5]	8.28
[10]	9.14
[13]	4.46
[15]	18.3

percent inhibition of viability [%]
Settings	1 nM	10 nM	100 nM	1000 nM	10000 nM
DERL-7 (IL-2 2.5 ng/mL) [24]	-5.89	8.74	69.9	96.4	100
IMC-1 (IL-2 20 ng/mL) [16]	-3.93	2.9	98.1	99.6	100
KAI3 (IL-2 2.5 ng/mL) [22]	-7.96	6.65	82.9	69.8	100
KHYG-1 (IL-2 2.5 ng/mL) [18]	-8.76	-0.99	98	104	104
NK-92 (IL-2 2.5 ng/mL) [27]	-7.93	14.4	98	102	105
NK-YS (IL-2 2.5 ng/mL) [23]	-4.31	2.83	91.2	94.4	104
NKL (IL-2 2.5 ng/mL) [21]	-16.1	0.22	95.8	101	97.5
SNK-6 (IL-2 2.5 ng/mL) [17]	-7.26	-5.12	93	96.6	99.4
YT (IL-2 2.5 ng/mL) [26]	-6.41	1.19	83.4	102	105
[14]	-4.37	0.95	51.7	58.8	99.9
[19]	-0.98	18.9	12.2	42.5	84.4
[20]	-7.25	5.21	15.2	31.4	85.2
[25]	-3.05	6.63	20.6	31.7	84.1
[28]	-1.44	14.8	4.57	2.84	73.8
